In EPA's ToxValDB 9.5 (doi:10.2903/j.efsa.2015.3958):

Tests used:
Apis mellifera = details: acute; oral; unspecified; mortality
Daphnia magna = details: chronic/long-term; duration: 21 days; reproduction
Folsomia candida = details: chronic/long-term; duration: 28 days
Hypoaspis aculeifer = details: acute; duration: 14 days
Pimephales promelas = details: chronic/long-term; duration: 32 days; growth

COc1nc(C)nc(NC(=O)NS(=O)(=O)c2ccccc2OCCCl)n1 [Triasulfuron]
LD50 (Apis mellifera): > 100 µg/piece | LC50 (Colinus virginianus; acute, oral, diet, mortality): > 5000 mg/kg | LD50 (Colinus virginianus; acute, oral, mortality): > 2150 mg/kg | NOEL (Colinus virginianus; reproduction developmental): 94 mg/kg-day | NOEC (Daphnia magna): 10 mg/L | NOEC (Folsomia candida): 100 mg/kg | NOEC (Hypoaspis aculeifer): 100 mg/kg | NOEC (Pimephales promelas): 36.6 mg/L | LD50 (Rattus norvegicus; acute, mortality): > 5000 mg/kg | NOAEL (Rattus norvegicus; chronic): 50 mg/kg-day | LC50 (Tagia sp.; acute, duration: 14 days, mortality): > 1000 mg/kg | NOEC (Tagia sp.; chronic/long-term, duration: 8 weeks): 50.8 mg/kg
